Test results from US11673866B2, “Estrogen receptor beta ligands for the prevention and treatment of multiple sclerosis (MS) and other demyelinating, inflammatory and neurodegenerative diseases” (The Board of Trustees of the University of Illinois, priority 2018, dated 2023).
“Also recorded” adds a separate entry of the source.

What was measured:
ERβ = ERβ (Homo sapiens, UniProt Q92731); assay: Relative binding affinity (RBA) to estrogen receptor beta, radiometric measurement; settings: for β/α Ratio: ratio of RBA ERβ to RBA ERα; for RBA ERβ: relative value to 100% for E2 by radiometric measurement
ERα = molecular target: T1, ERα (Homo sapiens, UniProt P03372); assay: Relative binding affinity (RBA) to estrogen receptor alpha, radiometric measurement; settings: relative value to 100% for E2 by radiometric measurement
T1 sequence (P03372 1-595): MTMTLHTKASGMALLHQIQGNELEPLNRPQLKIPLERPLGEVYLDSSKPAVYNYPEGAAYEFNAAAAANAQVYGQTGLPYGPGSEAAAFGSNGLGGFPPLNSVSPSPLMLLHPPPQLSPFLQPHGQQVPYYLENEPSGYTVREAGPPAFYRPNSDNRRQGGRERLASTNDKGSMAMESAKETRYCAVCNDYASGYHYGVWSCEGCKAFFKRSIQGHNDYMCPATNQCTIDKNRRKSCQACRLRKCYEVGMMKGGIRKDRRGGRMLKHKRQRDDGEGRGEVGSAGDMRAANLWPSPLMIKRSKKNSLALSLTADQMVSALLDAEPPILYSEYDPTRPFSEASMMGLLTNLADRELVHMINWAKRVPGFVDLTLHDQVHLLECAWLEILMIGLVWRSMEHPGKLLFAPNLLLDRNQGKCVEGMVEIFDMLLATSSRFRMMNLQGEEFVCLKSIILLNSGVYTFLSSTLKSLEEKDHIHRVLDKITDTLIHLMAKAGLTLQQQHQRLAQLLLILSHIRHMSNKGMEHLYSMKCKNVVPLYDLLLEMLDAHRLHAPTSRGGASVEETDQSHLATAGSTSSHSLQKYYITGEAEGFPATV

[1] = system: primary oligodendrocyte and oligodendrocyte precursor cells (OL/OPCs); assay: Primary OPC culture differentiation (MBP immunostaining, DAPI); format: cell-based, mouse; parameters: key to %MBP+/DAPI: *: The level of production of myelin basic protein (MBP); ---: reduction of MBP; settings: for %MBP+/DAPI: level of production of myelin basic protein in primary OPC/OL cultures
Description: Primary OPC Cultures: Primary OPCs, isolated from postnatal day P1 C57BL/6 male and female mouse cortices as described previously, were treated with 10 nM ligands in differentiating medium for 3 days (Tiwari-Woodruff et al., 2001; Tiwari-Woodruff et al., 2006). Primary OPC were cultured into 8-well chamber slides (three wells per condition, 2.5×10^5 cells/well) for three days to attach and […] in differentiating media (consisting of DMEM-F12 with triiodothyronine- and thyroxine-containing Sato as well as penicillin, streptomycin, insulin, N-acetyl-L-cysteine, forskolin, ciliary neurotrophic factor, neurotrophin-3, and platelet-derived growth factor receptor α (Tiwari-Woodruff et al., 2001)). A positive control (IndCl), a negative control (Vehicle consisting of the media+EtOH mixture used to dissolve IndCl), and a normal control (differentiating media alone) were used for comparison. At the end of the treatment period, cells were fixed, stained by immunocytochemistry (primary antibody polyclonal chicken myelin basic protein (MBP, Millipore AB9348), shown in green and co-stained with nuclear stain—DAPI shown in blue), and imaged with an Olympus BX61 confocal microscope (Olympus America Inc., Center Valley, Pa.) at 10× magnification (3 images per well). Cells were counted using the ImageJ multipoint tool, and counts were then divided by the image area (mm^2). Average cell density for each condition was then divided by the normal condition cell density. Analysis of OL differentiation consisted of counting the number of MBP+ cells and process extensions that were longer than the respective cell-body diameter and tracking the number of highly branched MBP+ cells (with three or more processes) (Monnerie et al., 2017). Statistics were performed using GraphPad Prism 6 Software (La Jolla, Calif.). One-way ANOVA with Tukey's posthoc test for multiple comparisons was used to generate p-values, and data are presented as mean SEM (with α≤0.05).
Primary OPC cultures were used as a convenient cell-based assay to characterize the proliferation and/or differentiation effects of the new IndCl analogues and to select those most suitable for more extensive studies to be done in comparison with the parental ligand, IndCl. 48 hours after plating OPCs, one of seven IndCl analogues (FIG. 1A) was added to differentiating media at a concentration of 10 nM (De Angelis et al., 2005; Saijo et al., 2011). OPCs were allowed to differentiate for 3 days in the presence of IndCl or analogues, at which point they were fixed, immunostained for OPC/OL markers, and quantified. […] The total number of cells in culture was not altered by any treatment (FIGS. 1B and 1D).

Sequence of ERβ (Q92731 whole entry, species assumed): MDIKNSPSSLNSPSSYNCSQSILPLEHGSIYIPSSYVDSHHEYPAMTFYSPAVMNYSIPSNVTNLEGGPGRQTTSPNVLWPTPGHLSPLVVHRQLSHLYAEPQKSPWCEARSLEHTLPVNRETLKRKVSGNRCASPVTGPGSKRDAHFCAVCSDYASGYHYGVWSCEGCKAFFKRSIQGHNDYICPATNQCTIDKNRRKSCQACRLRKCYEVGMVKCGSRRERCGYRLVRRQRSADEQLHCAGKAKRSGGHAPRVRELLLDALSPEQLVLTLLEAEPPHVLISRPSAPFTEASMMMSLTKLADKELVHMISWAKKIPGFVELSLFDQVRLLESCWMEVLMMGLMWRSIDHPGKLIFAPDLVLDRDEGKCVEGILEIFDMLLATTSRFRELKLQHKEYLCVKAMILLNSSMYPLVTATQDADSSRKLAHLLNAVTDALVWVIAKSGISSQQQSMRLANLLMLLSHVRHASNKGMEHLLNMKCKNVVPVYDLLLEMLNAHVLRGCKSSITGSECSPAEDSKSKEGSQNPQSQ

| β/α Ratio (ERβ) | RBA ERβ (ERβ) [%] | RBA ERα (ERα) [%] | Compound | number of MBP+ OLs (differentiated OLs) ([1]; 10 nM, 3 days in differentiating media, vs vehicle-treated cells) | branched OLs / complex branching cells ([1]; 10 nM, vs vehicle-treated cells) | MBP+/DAPI ratio (OPC differentiation) ([1]; FIG. 10B) | %MBP+/DAPI [1] |
| --- | --- | --- | --- | --- | --- | --- | --- |
| 2.5 | 0.86 | 0.34 | C=CCc1c2cc(O)ccc2nn1-c1ccc(O)cc1Br [Ind-allyl-o-Br, 3-allyl-2-(2-bromo-4-hydroxyphenyl)-2H-indazol-5-ol] |  |  |  |  |
| 12.8 | 6.28 | 0.49 | Oc1ccc(-n2nc3ccc(O)cc3c2Br)c(I)c1 [IndBr-o-I, 3-bromo-2-(4-hydroxy-2-iodophenyl)-2H-indazol-5-ol] |  |  |  |  |
| 2.3 | 0.61 | 0.27 | Oc1ccc(-n2nc3ccc(O)cc3c2F)c(I)c1 [IndF-o-I, 3-fluoro-2-(4-hydroxy-2-iodophenyl)-2H-indazol-5-ol] |  |  |  |  |
| 15.7 | 5.38 | 0.34 | Oc1ccc(-n2nc3ccc(O)cc3c2Cl)c(I)c1 [IndCl-o-I, 2-(2-iodo-4-hydroxyphenyl)-3-chloro-2H-indazol-5-ol] | significant increase; also recorded: significantly increased | increase in the percentage of branched OLs |  |  |
| 7.8 | 0.63 | 0.08 | Oc1ccc(-c2c3cc(O)ccc3nn2-c2ccc(O)cc2)cc1 [Ind-Ph-p-OH, 4,4′-(5-hydroxy-2H-indazole-2,3-diyl)diphenol] |  |  |  |  |
| 13.0 | 2.34 | 0.18 | Oc1ccc(-n2nc3ccc(O)cc3c2Cl)c(C2SCCS2)c1 [IndCl-o-Thiolane, 2-(2-(1,3-dithiolan-2-yl)-4-hydroxyphenyl)-3-chloro-2H-indazol-5-ol] |  |  |  |  |
| 3.6 | 0.28 | 0.076 | Oc1cc(F)c(-n2nc3ccc(O)c(Cl)c3c2Cl)c(F)c1 [IndCl-o-F2-4-Cl, 3,4-dichloro-2-(2,6-difluoro-4-hydroxyphenyl)-2H-indazol-5-ol] |  |  | greatest increase |  |
| 21.1 | 2.3 | 0.11 | Oc1cc(Cl)c(-n2nc3ccc(O)c(Cl)c3c2Cl)c(Cl)c1 [IndCl-o-Cl2-4-Cl, 3,4-dichloro-2-(2,6-dichloro-4-hydroxyphenyl)-2H-indazol-5-ol] |  |  |  |  |
| 15.7 | 0.77 | 0.05 | N#Cc1cc(O)ccc1-n1nc2ccc(O)cc2c1Cl [IndCl-o-CN, 2-(3-chloro-5-hydroxy-2H-indazol-2-yl)-5-hydroxybenzonitrile] |  |  |  | --- |
| 0.46 | 0.73 | 0.33 | Oc1ccc(-n2nc3ccc(O)c(Cl)c3c2Cl)c(Cl)c1 [IndCl-o-Cl-4-Cl, 2-(2-chloro-4-hydroxyphenyl)-3,4-dichloro-2H-indazol-5-ol] |  |  |  | * |
| 4.2 | 5.84 | 1.40 | Oc1ccc(-n2nc3ccc(O)cc3c2Br)c(Br)c1 [IndBr-o-Br, 3-bromo-2-(2-bromo-4-hydroxyphenyl)-2H-indazol-5-ol] |  |  |  | * |
| 19.9 | 16.12 | 0.81 | Oc1ccc(-n2nc3ccc(O)cc3c2Br)c(Cl)c1 [IndBr-o-Cl, 3-bromo-2-(2-chloro-4-hydroxyphenyl)-2H-indazol-5-ol] |  |  |  |  |
| 10.5 | 4.93 | 0.47 | Oc1ccc(-n2nc3ccc(O)cc3c2I)c(Cl)c1 [IndI-o-Cl, 2-(2-chloro-4-hydroxyphenyl)-3-iodo-2H-indazol-5-ol] |  |  |  |  |
| 35.8 | 1.43 | 0.04 | OCc1c2cc(O)ccc2nn1-c1ccc(O)cc1 [Ind-CH2OH, 3-(hydroxymethyl)-2-(4-hydroxyphenyl)-2H-indazol-5-ol] |  |  |  |  |
| 75.7 | 10.5 | 0.14 | Oc1ccc2nn(-c3ccc(O)c(F)c3)c(Cl)c2c1 [IndCl-m-F, 3-chloro-2-(3-fluoro-4-hydroxyphenyl)-2H-indazol-5-ol] |  |  |  |  |
| 7.0 | 9.64 | 1.38 | Cc1cc(O)ccc1-n1nc2ccc(O)cc2c1I [IndI-o-Me, 2-(4-hydroxy-2-methylphenyl)-3-iodo-2H-indazol-5-ol] |  |  |  |  |
| 52.4 | 9.79 | 0.19 | Oc1ccc(-n2nc3ccc(O)cc3c2Cl)c(F)c1 [IndCl-o-F, 3-chloro-2-(2-fluoro-4-hydroxyphenyl)-2H-indazol-5-ol] |  |  |  |  |
| 2.0 | 0.06 | 0.03 | Oc1cc(F)c(-n2cc3cc(O)ccc3n2)c(F)c1 [IndH-o-F2, 2-(2,6-difluoro-4-hydroxyphenyl)-2H-indazol-5-ol] |  |  |  |  |
| 5.3 | 6.64 | 1.25 | Oc1ccc(-n2nc3ccc(O)cc3c2I)c(Br)c1 [IndI-o-Br, 2-(2-bromo-4-hydroxyphenyl)-3-iodo-2H-indazol-5-ol] |  |  |  |  |
| 18.0 | 2.34 | 0.13 | OCc1cc(O)ccc1-n1nc2ccc(O)cc2c1Cl [IndCl-o-CH2OH, 3-chloro-2-(4-hydroxy-2-(hydroxymethyl)phenyl)-2H-indazol-5-ol] |  |  |  |  |
| 14.9 | 8.04 | 0.54 | C=Cc1c2cc(O)ccc2nn1-c1ccc(O)cc1Br [Ind-vinyl-o-Br, 2-(2-bromo-4-hydroxyphenyl)-3-vinyl-2H-indazol-5-ol] |  |  |  |  |
| 5.8 | 0.74 | 0.13 | Cc1cc(-n2nc3ccc(O)cc3c2Cl)ccc1O [IndCl-m-Me, 3-chloro-2-(4-hydroxy-3-methylphenyl)-2H-indazol-5-ol] |  |  |  |  |
| 4.0 | 1.09 | 0.27 | Oc1ccc(-n2nc3ccc(O)cc3c2F)c(Cl)c1 [IndF-o-Cl, 2-(2-chloro-4-hydroxyphenyl)-3-fluoro-2H-indazol-5-ol] |  |  |  |  |
| 10.3 | 0.31 | 0.03 | Oc1ccc(-n2nc3ccc(O)cc3c2C2SCCS2)cc1 [Ind-Thiolane, 3-(1,3-dithiolan-2-yl)-2-(4-hydroxyphenyl)-2H-indazol-5-ol] |  |  |  |  |
| 9.3 | 0.82 | 0.088 | Oc1cc(Cl)c(-n2cc3cc(O)ccc3n2)c(Cl)c1 [IndH-o-Cl2, 2-(2,6-dichloro-4-hydroxyphenyl)-2H-indazol-5-ol] |  |  |  |  |
| 17.9 | 8.31 | 0.47 | Oc1ccc(-n2nc3ccc(O)cc3c2Cl)c(Br)c1 [IndCl-o-Br, 2-(2-bromo-4-hydroxyphenyl)-3-chloro-2H-indazol-5-ol] |  |  |  | * |
| 6.7 | 2.5 | 0.37 | Oc1ccc(-n2nc3ccc(O)cc3c2I)c(I)c1 [IndI-o-I, 2-(4-hydroxy-2-iodophenyl)-3-iodo-2H-indazol-5-ol] |  |  |  |  |
| 3.7 | 10.39 | 2.84 | Oc1ccc(-n2nc3ccc(O)cc3c2Cl)c(C(F)(F)F)c1 [IndCl-o-CF3, 3-chloro-2-(4-hydroxy-2-(trifluoromethyl)phenyl)-2H-indazol-5-ol] |  |  |  |  |
